pIC50, pKd: −log10 of the molar value. Read-outs that look alike come from different tables or passages of the source. Square brackets hold non-standard residues; d marks the D form. Peptide text beside a SMILES is read from it. * marks the point of attachment. 5FAM = O=C1OC2(c3ccc(O)cc3Oc3cc(O)ccc32)c2ccc(C(=O)*)cc21; Abu = CC[C@H](N)C(=O)O

A word on the pIC50: it is the negative decadic logarithm of the IC50, by convention in mol/L.

One series concerns the target T1, ML-IAP BIR3 domain (Homo sapiens, UniProt Q96CA5).
T1 construct: ML-IAP BIR3 domain (residues 63-179), fused to a His-tag; His-tag
T1 sequence (Q96CA5 63-179): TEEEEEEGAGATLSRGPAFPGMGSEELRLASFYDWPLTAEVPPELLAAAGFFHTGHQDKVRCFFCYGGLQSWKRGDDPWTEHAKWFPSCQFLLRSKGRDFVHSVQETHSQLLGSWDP
Description: FP competitive binding assay to ML-IAP BIR3. The following applies: FP tracer; read-out: affinity of tracer for ML-IAP. The method, then: In order to test the binding ability of conformationally constrained Smac mimetics to other IAP proteins (ML-IAP, cIAP1, and cIAP2) binding assay conditions were developed and optimized. The recombinant cIAP1 BIR3 domain (residues 253-363), cIAP2 BIR3 domain (residues 238-349), and ML-IAP BIR3 domain (residues 63-179), fused to a His-tag, were used in the binding assays. Competitive binding assays for other IAP proteins were performed similarly as that described for XIAP BIR3. […] The following protein concentration and tracer were used in the competitive assay: 10 nM cIAP1 and 2 nM SM5F, 25 nM cIAP2 and 2 nM SM5F, 300 nM ML-IAP and 5 nM SM5F
The competitive binding curves of SM-406 and SM-428 to BIR^3 domains of four members of IAP proteins were determined using a fluorescence-polarization-based binding assay. The IAP proteins tested include: (A) XIAP; (B) cIAP1; (C) cIAP2; (D) ML-IAP.

The target of another series is T2, cIAP2 BIR3 domain (Homo sapiens, UniProt Q13489).
T2 construct: cIAP2 BIR3 domain (residues 238-349); His-tag
Description: FP competitive binding assay to cIAP2 BIR3. The following applies: FP tracer; read-out: affinity of tracer for cIAP2.

A further series has as its target T3, cIAP1 BIR3 domain (Homo sapiens, UniProt Q13490).
T3 construct: cIAP1 BIR3 domain (residues 253-363); His-tag
The experiment in a line: FP competitive binding assay to cIAP1 BIR3. To be noted: FP tracer; read-out: affinity of tracer for cIAP1.

The next series addresses XIAP BIR3 (Homo sapiens, UniProt P98170). Description: Fluorescence polarization (FP) based competitive binding assay to XIAP BIR3. Also noted: human XIAP (residues 241-356) fused to His-tag; His-tag. The following applies: FP binding, XIAP BIR3 30 nM, SM5F 5 nM. (In general: Fluorescence polarisation rises when a labelled molecule tumbles more slowly, as on binding a larger partner.)

Series [1] relates to SK-OV-3 ovarian cancer cell line. Description: Cell growth inhibition, WST-8 assay, SK-OV-3. In kind it is cell-based. To be noted: Homo sapiens, SK-OV-3, 96 h, 4 days. The method, then:
(§1) The effect of the compounds of the present invention on the growth of various cancer cell lines was tested. Cells were seeded in 96-well flat bottom cell culture plates at a density of 3000 cells/well with a tested compound and incubated at 37° C. in an atmosphere of 95% air and 5% CO2 for 4 days. […] Dojindo Molecular Technologies, Inc., Gaithersburg, Md.). […] The absorbance of the samples was measured at 450 nm using a ULTRA Tecan Reader (Molecular Device). […] The ability of SM-406 to inhibit cell growth as a single agent was tested in the MDA-MB-231 breast cancer cell line, SK-OV-3 and OVCAR-4 ovarian cancer cell lines and SK-MeI-2 melanoma cancer cell line. Cells were treated for 4 days. Cell growth was determined using a WST-based assay.
A general note: Tetrazolium dyes change colour on reduction, which living cells bring about.

Series [2] relates to MDA-MB-231 breast cancer xenograft. Description: MDA-MB-231 breast cancer xenograft model in nude mice. In kind it is in vivo. The procedure:
The ability of SM-406 (AT-406) to act as anti-tumor agent was tested in the MDA-MB-231 breast cancer xenograft (nude mice) model. SM-406 (AT-406) was administered qd×5 per week for two weeks. […] Body weight loss was less in weekly dosing (<5%) compared to the other dosing schedules.

Another series concerns HL-60 leukemia cell line. The experiment in a line: Cell growth inhibition, WST-based assay, HL-60. The following applies: Homo sapiens, HL-60, 96 h; single agent, 4 days, FIG. 9. The procedure: (§2) The ability of SM-406 to inhibit cell growth as a single agent was tested in the HL-60 and SR leukemia cell lines. Cells were treated for 4 days. Cell growth was determined using a WST-based assay.

The next series has as its system SR leukemia cell line. The experiment in a line: Cell growth inhibition, WST-based assay, SR. To be noted: 96 h; single agent, 4 days, FIG. 9. The procedure: as §2
The test system of series [3] is OVCAR-4 ovarian cancer cell line. The experiment in a line: Cell growth inhibition, WST-based assay, OVCAR-4. The following applies: Homo sapiens, OVCAR-4, 96 h; single agent, 4 days, FIG. 8. The procedure:
(§3) The ability of SM-406 to inhibit cell growth as a single agent was tested in the MDA-MB-231 breast cancer cell line, SK-OV-3 and OVCAR-4 ovarian cancer cell lines and SK-MeI-2 melanoma cancer cell line. Cells were treated for 4 days. Cell growth was determined using a WST-based assay.

The subject of series [4] is MDA-MB-231 human breast cancer cell line. The experiment in a line: Cell growth inhibition, WST-8 assay, MDA-MB-231. The following applies: Homo sapiens, MDA-MB-231, 96 h, 4 days. It is filed as cell-based. The method, then:
as §1

In series [5] the test system is SK-Mel-2 melanoma cancer cell line. Description: Cell growth inhibition, WST-based assay, SK-Mel-2. The following applies: Homo sapiens, SK-MEL-2, 96 h; single agent, 4 days, FIG. 8. The procedure:
as §3

T3 sequence (Q13490 253-363): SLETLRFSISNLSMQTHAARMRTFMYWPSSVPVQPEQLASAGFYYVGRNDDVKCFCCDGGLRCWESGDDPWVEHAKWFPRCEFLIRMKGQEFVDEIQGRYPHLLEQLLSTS
Chain of XIAP BIR3 (P98170 241-356): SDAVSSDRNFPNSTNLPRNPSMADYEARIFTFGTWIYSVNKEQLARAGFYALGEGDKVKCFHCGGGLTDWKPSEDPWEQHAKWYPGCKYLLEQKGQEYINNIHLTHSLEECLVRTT
T2 sequence (Q13489 238-349): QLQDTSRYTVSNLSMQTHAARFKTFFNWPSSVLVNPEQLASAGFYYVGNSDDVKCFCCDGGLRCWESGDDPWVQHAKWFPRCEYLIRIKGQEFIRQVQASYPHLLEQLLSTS

For `CC[C@H](N)C(=O)N[C@@H](CCCNC(=N)N)C(=O)N1CCC[C@H]1C(=O)N[C@@H](Cc1ccccc1)C(=O)N[C@@H](CCCCNC(=O)c1ccc2c(c1)C(=O)OC21c2ccc(O)cc2Oc2cc(O)ccc21)C(N)=O` [SM5F, AbuRPF-K-(5-Fam)-NH2] (H-[Abu]RPFK(5FAM)-NH2; N-terminus assumed), the pKd at ML-IAP BIR3 domain was 6.80; at cIAP2 BIR3 domain it was 8.18; on cIAP1 BIR3 domain, 8.39.

On to `CN[C@@H](C)C(=O)N[C@H]1CN(C(=O)CC(C)C)CC[C@H]2CC[C@@H](C(=O)NC(c3ccccc3)c3ccccc3)N2C1=O` [SM-406], for which the pIC50 is above 7.00 on XIAP BIR3; above 6.00 in [1] (WST-8, read-out: SK-OV-3 IC50); 6.62 in series [1] (single agent, FIG. 8, read-out: IC50, cell growth, SK-OV-3); 7.24 in the series with HL-60 leukemia cell line; 5.14 in the series with SR leukemia cell line; 6.03 in series [3]. In addition, the negative logarithm of the IC50 (pIC50) was above 6.00 in [4] (WST-8, read-out: MDA-MB-231 IC50); 7.09 in series [4] (single agent, FIG. 8, read-out: IC50, cell growth, MDA-MB-231); 5.18 in series [5]. In addition, the body weight loss in series [2] (200 mg/kg, weekly dosing) is below 5%. For the same molecule, the dose-dependent weight loss entry in series [2] (100 and 200 mg/kg, qd×5 per week for two weeks) is reported as “up to 11%”.

(Values after US8278293B2, “Diazo bicyclic Smac mimetics and the uses thereof” (The Regents of the University of Michigan, priority 2007, dated 2012).)
